Source: ChEMBL document CHEMBL1201862, “PubChem BioAssay data set” (2004)
Activity calls are given as the source filed them.

Columns and labels:
[1] = P. falciparum Dd2 growth inhibitors, dose response, SYBR Green, dry powder samples, set 9 (AID 1159568); assay type: functional, cell-based
[2] = P. falciparum Dd2 growth inhibitors, dose response, SYBR Green, dry powder samples, set 4 (AID 1159572); assay type: functional, cell-based
[3] = Artemis endonuclease inhibitor potency, dose response, biochemical, fluorescence intensity (AID 720701); assay type: functional;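 note: Artemis endonuclease enzyme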
[4] = cytotoxicity in HeLa cells, dose response, cytotoxicity control, cell-based, plate reader, dry powder (AID 651946); assay type: functional
[5] = inhibitors of non-replicating M. tuberculosis, dose response, luciferase, dry powder (AID 651620); assay type: functional; conditions: Mycobacterium tuberculosis
[6] = inhibitors of non-replicating M. tuberculosis, dose response, luciferase, dry powder (AID 651619); assay type: functional; conditions: Mycobacterium tuberculosis
[7] = growth inhibition of replicating M. tuberculosis, dose response, counter-screen, dry powder, IC90 (AID 651617); assay type: functional; conditions: Mycobacterium tuberculosis
[8] = HEK293T cell cytotoxicity, dose response, cytotoxicity control, CellTiter-Glo luminescence, dry powder, set 6 (AID 651949); assay type: functional, cell-based; conditions: HEK293
[9] = A549 cell cytotoxicity, dose response, CellTiter-Glo luminescence, dry powder, set 17 (AID 1117284); assay type: functional, cell-based
[10] = HEK293T cytotoxicity, dose response, cytotoxicity control for miR-122 modulator project, cell-based, activator set, cherry-pick (AID 720690); assay type: functional;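 note: HEK293T human cells scored for general mammalian cytotoxicity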
[11] = A549 cell cytotoxicity, dose response, cytotoxicity control, 24 h, CellTiter-Glo luminescence, cherry-picks (AID 1053115); assay type: functional, cell-based; conditions: A549, 24 h
[12] = cytotoxicity in OVCAR8 ovarian cancer cells, dose response, PAX8 project, cell-based, plate reader, dry powder samples (AID 743197); assay type: functional; conditions: OVCAR-8
[13] = biological target: Paired box protein Pax-8 (Homo sapiens, UniProt Q06710); experiment: inhibitors of PAX8-driven TPO luciferase reporter, dose response, RMG-I cells, cherry-pick (AID 687027); assay type: functional, cell-based;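 note: luciferase reporter driven by Pax8 target thyroperoxidase promoter measured by SteadyGlo luminescence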
[14] = non-specific cell cytotoxicity, dose response, cytotoxicity control for PAX8 inhibitor project, plate reader, dry powder samples (AID 743021); assay type: functional, cell-based
[15] = HEK293T cytotoxicity, dose response, cytotoxicity control for miR-122 modulator project, cell-based, inhibitor set, cherry-pick, set 2 (AID 720697); assay type: functional
[16] = Late-stage results from the probe development effort to identify antagonists of arginine vasopressin receptor 1a (AVPR1a): fluorescence-based cell-based dose response AVPR1a inhibition assay.; assay type: functional
[17] = Late-stage results from the probe development effort to identify antagonists of arginine vasopressin receptor 1a (AVPR1a): fluorescence-based cell-based dose response OXTR inhibition counterscreen assay.; assay type: functional
[18] = biological target: Vasopressin V2 receptor (Homo sapiens, UniProt P30518); experiment: Late-stage results from the probe development effort to identify antagonists of arginine vasopressin receptor 1a (AVPR1a): fluorescence-based cell-based dose response AVPR2 inhibition counterscreen assay.; assay type: functional
[19] = biological target: Vasopressin V1b receptor (Homo sapiens, UniProt P47901); experiment: Late-stage results from the probe development effort to identify antagonists of arginine vasopressin receptor 1a (AVPR1a): fluorescence-based cell-based dose response AVPR1b inhibition counterscreen assay.; assay type: functional
[20] = cytotoxicity dependent on PAX8, dose response, cell-based, plate reader, dry powder (AID 743049); assay type: functional
[21] = PAX2 cell-based inhibition, dose response, selectivity assay for PAX8 inhibitor project, plate reader, dry powder samples (AID 743048); assay type: functional;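 note: HEK293 cells carrying a WT1 promoter luciferase reporter driven by expressed Pax2; potency is for inhibition of Pax2 driven reporter signal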
[22] = cytotoxicity in OV-90 ovarian cancer cells, dose response, PAX8 inhibitor project, cell-based, plate reader, dry powder, SA8 (AID 743149); assay type: functional
[23] = PAX5 activity inhibitors, dose response, selectivity assay for PAX8 inhibitor project, cell-based, plate reader, dry powder samples (AID 743047); assay type: functional;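 note: HEK293 cells carrying a Pax5 driven CD19 promoter luciferase reporter; potency of inhibitors that lower reporter luminescence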

Paired box protein Pax-8, sequence (Q06710 whole entry): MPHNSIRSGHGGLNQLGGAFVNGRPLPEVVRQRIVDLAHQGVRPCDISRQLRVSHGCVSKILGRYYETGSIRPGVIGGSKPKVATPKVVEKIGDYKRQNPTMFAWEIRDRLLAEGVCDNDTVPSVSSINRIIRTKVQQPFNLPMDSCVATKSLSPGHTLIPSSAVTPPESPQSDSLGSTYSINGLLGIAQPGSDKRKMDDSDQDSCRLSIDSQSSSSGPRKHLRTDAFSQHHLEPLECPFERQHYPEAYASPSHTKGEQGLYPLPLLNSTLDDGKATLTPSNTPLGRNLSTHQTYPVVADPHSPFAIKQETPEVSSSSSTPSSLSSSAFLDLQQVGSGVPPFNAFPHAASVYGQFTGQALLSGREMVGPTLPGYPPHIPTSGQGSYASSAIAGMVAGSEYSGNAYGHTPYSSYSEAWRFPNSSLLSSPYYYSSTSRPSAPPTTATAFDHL
Vasopressin V2 receptor, sequence (P30518 whole entry): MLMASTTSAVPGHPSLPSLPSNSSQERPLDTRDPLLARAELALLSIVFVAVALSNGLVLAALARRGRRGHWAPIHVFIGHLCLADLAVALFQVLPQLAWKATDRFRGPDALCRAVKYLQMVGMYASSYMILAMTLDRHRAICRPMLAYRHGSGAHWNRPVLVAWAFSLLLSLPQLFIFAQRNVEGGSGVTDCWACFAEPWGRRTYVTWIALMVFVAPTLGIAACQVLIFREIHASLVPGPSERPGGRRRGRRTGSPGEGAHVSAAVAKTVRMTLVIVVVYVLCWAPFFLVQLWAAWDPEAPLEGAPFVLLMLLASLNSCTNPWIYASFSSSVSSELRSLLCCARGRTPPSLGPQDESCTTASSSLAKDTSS
Vasopressin V1b receptor, sequence (P47901 whole entry): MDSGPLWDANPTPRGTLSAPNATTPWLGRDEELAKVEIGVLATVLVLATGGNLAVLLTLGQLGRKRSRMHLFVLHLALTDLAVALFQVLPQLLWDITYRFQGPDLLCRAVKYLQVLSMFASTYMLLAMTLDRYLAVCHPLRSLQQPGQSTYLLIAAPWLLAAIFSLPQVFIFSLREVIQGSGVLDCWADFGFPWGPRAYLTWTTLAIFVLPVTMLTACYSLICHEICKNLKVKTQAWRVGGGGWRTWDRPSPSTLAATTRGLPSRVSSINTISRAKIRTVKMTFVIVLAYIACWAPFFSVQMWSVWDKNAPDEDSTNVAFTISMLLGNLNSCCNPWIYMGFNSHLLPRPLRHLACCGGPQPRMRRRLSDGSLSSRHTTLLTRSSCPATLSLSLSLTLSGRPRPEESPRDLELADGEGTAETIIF

SMILES: CCC(=O)N1CC2(CCN(C(=O)Nc3ccccc3F)CC2)c2c([nH]c3cc(OC)ccc23)[C@@H]1CO
- AC50 [1]: 561 nM (active)
- AC50 [2]: 294 nM (active)

SMILES: COc1ccc(/C=N/NC(=O)c2nc(-c3ccccc3)cc(-c3ccccc3)n2)cc1
- IC50 [3]: > 20 µM (inactive)

SMILES: COc1cccc(-c2nnc(SCc3ccccn3)o2)c1
- AC50 [4]: > 52 µM (inactive)
- IC90 [5]: 4 µM (active)
- IC90 [6]: 4 µM (active)
- IC90 [7]: 125 µM (active)
- AC50 [8]: > 52 µM (inactive)

SMILES: C[C@H](O)C#Cc1ccc2c(c1)O[C@@H](CN(C)Cc1ccc(-c3ccccc3)cc1)[C@@H](C)CN([C@H](C)CO)S2(=O)=O
- AC50 [9]: > 52 µM (inactive)
- AC50 [10]: 22.8 µM (active)
- AC50 [11]: 48.6 µM (active)
- AC50 [12]: > 70 µM (inactive)
- AC50 [13]: 4.57 µM (active)
- AC50 [14]: 46.3 µM (active)
- AC50 [15]: 21.6 µM (active)

SMILES: N#Cc1ccnc(N2CCC(C(=O)N(CC3CC3)c3ccc(Cl)cc3)CC2)c1
- IC50 [16]: 62.8 nM (active)
- IC50 [17]: 4.6 µM (active)
- IC50 [18]: > 50 µM (inactive)
- IC50 [19]: > 50 µM (inactive)

SMILES: N#C[C@@H]1[C@@H](c2ccc(-c3ccccc3F)cc2)[C@@H](CO)N1C(=O)C1CCC1
- AC50 [20]: > 70 µM (inactive)
- AC50 [21]: > 70 µM (inactive)
- AC50 [22]: > 70 µM (inactive)
- AC50 [13]: 8.88 µM (active)
- AC50 [23]: 60.8 µM (active)
